Reference: PubChem BioAssay AID2060601 (Molecular Pharmacology Branch, DTP, NCI, 2025)
Several values for one entry are separate records, joined by “and”; a condition that tells them apart may be missing. Equal values may be shown once.

Tested on: 874868-142-R-J2-PDC complex spheroids, growth % test/control
Assay: Anticancer human tumor 874868-142-R-J2-PDC patient-derived head and neck squamous carcinoma cell line growth inhibition [CLK]
Conditions: for viability, T/C: stronger effect = lower value
Source text: A high-throughput screen of multi-cell type tumor spheroids was designed to identify active combinations of […] and targeted small molecules. Complex spheroids include a stromal component modeled by human endothelial cells (HUVEC) and fibroblasts modeled by human mesenchymal stem cells (MSCs). The concentration ranges selected for each drug and investigational agent were based upon clinically achievable concentrations if the clinical Cmax of the agent was known.
Compounds. The drugs and investigational agents: cirtuvivint (SM08502; NSC835563), CC-671 (NSC850746), vemurafenib (NSC761431), tapotoclax (NSC804041), sotorasib (NSC818433), adagrasib (NSC831453), MRTX-1133 (NSC836407), BAY2416964 (NSC825713), copanlisib (NSC816437), inavolisib (NSC800729), abemaciclib (NSC768073), osimertinib (NSC779217), entinostat (NSC756642), eltanexor (KPT-8602, NSC794443), venetoclax (NSC766270), ceralasertib (NSC777638), bortezomib (NSC756655), olaparib (NSC753686), talazoparib (NSC767125), alisertib (NSC759677), peposertib (NSC802822), gemcitabine (NSC613327), 5-fluorouracil (NSC19893), SN-38 (NSC673596), oxaliplatin (NSC266046), paclitaxel (NSC125973), and doxorubicin (NSC123127), were obtained from the National Cancer Institute (NCI) Developmental Therapeutics Program Chemical Repository. The FDA-approved anticancer drug set is available from the Developmental Therapeutics Program at https://dtp.cancer.gov/organization/dscb/obtaining/available plates.htm. […] The stock solutions were prepared in dimethyl sulfoxide (DMSO, Sigma-Aldrich, St. Louis, MO, cat. D2650), except for the platinum complexes which were prepared in saline (Quality Biological, Gaithersburg, MD, cat. 114-055-101), at 800-fold the tested concentration and stored at -70 degrees C prior to their use. All drugs and investigational agents were tested over a range starting from a high concentration at or near the clinical Cmax and decreasing in half-log increments. If the clinical Cmax for an agent had not been determined, the highest concentration tested was 10 microM.
Cell Culture. All cells were maintained in an incubator at 37 degrees C and 5% CO2 with 95% humidity. The PDC lines were cultured according to standard operating procedures established by the NCI PDMR. Briefly, all PDCs were thawed and cultured in Matrigel-coated flasks prepared with a working solution of 1X Ham's F-12 nutrient mix, without supplementation (Invitrogen, Waltham, MA, cat. 11765054), 100 U/mL penicillin-streptomycin (Invitrogen, cat. 15140122), and 2.5% Matrigel (Corning Inc., Corning, NY, cat. 354248) for the first three passages. The 947758-054-R-J2-PDC line was cultured in 6B/Colon 1A media, which includes advanced DMEM/F-12 (Thermo Fisher Scientific, cat. 12634028), 10 mM HEPES (Thermo Fisher Scientific, cat. 15630080), 1X GlutaMAX supplement (Thermo Fisher Scientific, cat. 35050061), 0.1 mg/mL primocin (InvivoGen, cat. ant-pm-2), 10% defined fetal bovine serum, heat inactivated (HyClone Laboratories Inc., cat. SH30070.03HI), 1.25 mM N-Acetyl-L-cysteine (Sigma-Aldrich, cat. A9165), 10 mM nicotinamide (Sigma-Aldrich, cat. N0636), 1X B-27 supplement (Thermo Fisher Scientific, cat. 17504044), 1X N-2 supplement (Thermo Fisher Scientific, cat. 17502048), and 10 microM Y-27632 dihydrochloride (Tocris Bioscience, cat. 1254). The 876862-298-R-J1-PDC was cultured in 6E media, which includes all 6B/Colon 1A media components plus 50% L-WRN conditioned media (ATCC, cat. CRL-3276), 50 ng/mL recombinant human EGF recombinant protein (hEGF; Thermo Fisher Scientific, cat. PHG0311), 10 ng/mL recombinant human fibroblast growth factor 10 (hGFG-10; PeproTech, cat. 100-26), 1 ng/mL recombinant human fibroblast growth factor 2 (hFGF-2; PeproTech, cat. 100-18B), and 1 µM prostaglandin E2 (PGE2; Tocris, cat. 2296). The 227483-062-R1-J1-PDC line was cultured in Panc media, containing all 6E components except hFGF-2, with the addition of 500 nM SB-431542 (Selleckchem, cat. S1067) and 10 nM gastrin (Tocris, cat. 3006). […]

[1] = curve of first compound, second compound 0.0316 µM
[2] = curve of first compound, second compound 0.1 µM
[3] = curve of first compound, second compound 0.316 µM
[4] = curve of first compound, second compound 1 µM
[5] = curve of first compound, second compound 3.16 µM
[6] = curve of first compound, second compound 10 µM
[7] = second compound 0.0316 µM, first compound 0.00949 µM
[8] = second compound 0.0316 µM, first compound 0.03 µM
[9] = second compound 0.0316 µM, first compound 0.0949 µM
[10] = second compound 0.0316 µM, first compound 0.3 µM
[11] = second compound 0.0316 µM, first compound 0.949 µM
[12] = second compound 0.0316 µM, first compound 3 µM
[13] = second compound 0.1 µM, first compound 0.00949 µM
[14] = second compound 0.1 µM, first compound 0.03 µM
[15] = second compound 0.1 µM, first compound 0.0949 µM
[16] = second compound 0.1 µM, first compound 0.3 µM
[17] = second compound 0.1 µM, first compound 0.949 µM
[18] = second compound 0.1 µM, first compound 3 µM
[19] = second compound 0.316 µM, first compound 0.00949 µM
[20] = second compound 0.316 µM, first compound 0.03 µM
[21] = second compound 0.316 µM, first compound 0.0949 µM
[22] = second compound 0.316 µM, first compound 0.3 µM
[23] = second compound 0.316 µM, first compound 0.949 µM
[24] = second compound 0.316 µM, first compound 3 µM
[25] = second compound 1 µM, first compound 0.00949 µM
[26] = second compound 1 µM, first compound 0.03 µM
[27] = second compound 1 µM, first compound 0.0949 µM
[28] = second compound 1 µM, first compound 0.3 µM
[29] = second compound 1 µM, first compound 0.949 µM
[30] = second compound 1 µM, first compound 3 µM
[31] = second compound 3.16 µM, first compound 0.00949 µM
[32] = second compound 3.16 µM, first compound 0.03 µM
[33] = second compound 3.16 µM, first compound 0.0949 µM
[34] = second compound 3.16 µM, first compound 0.3 µM
[35] = second compound 3.16 µM, first compound 0.949 µM
[36] = second compound 3.16 µM, first compound 3 µM
[37] = second compound 10 µM, first compound 0.00949 µM
[38] = second compound 10 µM, first compound 0.03 µM
[39] = second compound 10 µM, first compound 0.0949 µM
[40] = second compound 10 µM, first compound 0.3 µM
[41] = second compound 10 µM, first compound 0.949 µM
[42] = second compound 10 µM, first compound 3 µM
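Further: spheroids exposed to the compounds for 7 days.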

CC1(C)CCC(CN2CCN(c3ccc(C(=O)NS(=O)(=O)c4ccc(NCC5CCOCC5)c([N+](=O)[O-])c4)c(Oc4cnc5[nH]ccc5c4)c3)CC2)=C(c2ccc(Cl)cc2)C1
viability, T/C (compound 0.0316 µM): 79.2% and 90.1%
viability, T/C (compound 0.1 µM): 104% and 95.1%
viability, T/C (compound 0.316 µM): 97.9% and 100%
viability, T/C (compound 1 µM): 101% and 91.3%
viability, T/C (compound 3.16 µM): 93% and 97.6%
viability, T/C (compound 10 µM): 84.1% and 44%
IC50 (curve of compound): > 10000 nM and 8720 nM

NC(=O)C(=Cn1cnc(-c2cc(C(F)(F)F)cc(C(F)(F)F)c2)n1)c1cncnc1 + CN1CCN(c2cc(C(=O)Nc3cc4cc(-c5cnn(C)c5)ccc4cn3)ccn2)CC1
IC50 [1]: 51.3 nM
IC50 [2]: < 9.49 nM
IC50 [3]: < 9.49 nM
IC50 [4]: < 9.49 nM
IC50 [5]: < 9.49 nM
IC50 [6]: < 9.49 nM
viability, T/C [7]: 69.8%
viability, T/C [8]: 62.5%
viability, T/C [9]: 35.4%
viability, T/C [10]: 20.1%
viability, T/C [11]: 1.73%
viability, T/C [12]: 2.54%
viability, T/C [13]: 50%
viability, T/C [14]: 44.8%
viability, T/C [15]: 25.2%
viability, T/C [16]: 3.61%
viability, T/C [17]: 0.81%
viability, T/C [18]: 0.34%
viability, T/C [19]: 14%
viability, T/C [20]: 5.04%
viability, T/C [21]: 0.53%
viability, T/C [22]: 0.23%
viability, T/C [23]: 0.23%
viability, T/C [24]: 0.1%
viability, T/C [25]: 0.37%
viability, T/C [26]: 0.25%
viability, T/C [27]: 0.32%
viability, T/C [28]: 0.28%
viability, T/C [29]: 0.22%
viability, T/C [30]: 1.66%
viability, T/C [31]: 0.39%
viability, T/C [32]: 0.31%
viability, T/C [33]: 0.46%
viability, T/C [34]: 0.38%
viability, T/C [35]: 0.19%
viability, T/C [36]: 0.14%
viability, T/C [37]: 0.14%
viability, T/C [38]: 0.14%
viability, T/C [39]: 3.64%
viability, T/C [40]: 0.17%
viability, T/C [41]: 0.24%
viability, T/C [42]: 0.2%

NC(=O)C(=Cn1cnc(-c2cc(C(F)(F)F)cc(C(F)(F)F)c2)n1)c1cncnc1 + CNC(=O)c1ccc(Nc2nc(OC3CCCC3)c3c(-c4ccc5nc(C)oc5c4)c[nH]c3n2)c(OC)c1
IC50 [1]: 31.3 nM
IC50 [2]: 21.3 nM
IC50 [3]: < 9.49 nM
IC50 [4]: < 9.49 nM
IC50 [5]: < 9.49 nM
IC50 [6]: < 9.49 nM
viability, T/C [7]: 70.8%
viability, T/C [8]: 49.3%
viability, T/C [9]: 28.2%
viability, T/C [10]: 6.41%
viability, T/C [11]: 4.32%
viability, T/C [12]: 4.58%
viability, T/C [13]: 66.4%
viability, T/C [14]: 40.8%
viability, T/C [15]: 27.1%
viability, T/C [16]: 4.57%
viability, T/C [17]: 3.53%
viability, T/C [18]: 3.49%
viability, T/C [19]: 45.8%
viability, T/C [20]: 33.4%
viability, T/C [21]: 17.1%
viability, T/C [22]: 2.51%
viability, T/C [23]: 4.77%
viability, T/C [24]: 2.89%
viability, T/C [25]: 34%
viability, T/C [26]: 19.8%
viability, T/C [27]: 14.9%
viability, T/C [28]: 2.12%
viability, T/C [29]: 1%
viability, T/C [30]: 4.53%
viability, T/C [31]: 35.6%
viability, T/C [32]: 19.2%
viability, T/C [33]: 12.4%
viability, T/C [34]: 1.32%
viability, T/C [35]: 6.47%
viability, T/C [36]: 0.18%
viability, T/C [37]: 36%
viability, T/C [38]: 18.8%
viability, T/C [39]: 3.67%
viability, T/C [40]: 1.02%
viability, T/C [41]: 3.87%
viability, T/C [42]: 4.53%
